In patent US5990094A, “Inhibitors of sorotonin N-acetyltransferase” (The Rockefeller University, priority 1998, dated 1999):
One block for each compound: values may come before it.

Tests used:
AANAT = conditions: 2-fluorohistidine replaces histidine; cited from earlier work
GST-AANAT = target: T1, GST-AANAT (Ovis aries, UniProt Q29495); experiment: Effect of DTNB on GST-AANAT activity; format: biochemical, sheep
T1 construct: The entire open reading frame of the DNA encoding sheep AANAT in the plasmid vector pET15b; made in house; host or cells: Escherichia coli BL21(DE3)pLysS
Method: The potential difficulty with this approach was that reducing agents such as dithiothreitol and β-mercaptoethanol react with DTNB (Ellman's reagent). Indeed, GST-AANAT is somewhat unstable in the absence of reducing agents, losing greater than 50% activity within 2 h at 4° C. (data not shown). However, the enzyme was stable within the short incubation periods used in these studies (less than 3 min). It was shown unequivocally that CoASH generation was coupled tightly to N-acetyltryptamine formation, and the activity was linear with time and enzyme concentration.

[1] = people; cited from earlier work
[2] = system: intracellular receptors for melatonin; conditions: intracellular orphan receptors vs G-protein family; cited from earlier work

T1 sequence (Q29495 other isoform, or with tags, fused parts or gaps): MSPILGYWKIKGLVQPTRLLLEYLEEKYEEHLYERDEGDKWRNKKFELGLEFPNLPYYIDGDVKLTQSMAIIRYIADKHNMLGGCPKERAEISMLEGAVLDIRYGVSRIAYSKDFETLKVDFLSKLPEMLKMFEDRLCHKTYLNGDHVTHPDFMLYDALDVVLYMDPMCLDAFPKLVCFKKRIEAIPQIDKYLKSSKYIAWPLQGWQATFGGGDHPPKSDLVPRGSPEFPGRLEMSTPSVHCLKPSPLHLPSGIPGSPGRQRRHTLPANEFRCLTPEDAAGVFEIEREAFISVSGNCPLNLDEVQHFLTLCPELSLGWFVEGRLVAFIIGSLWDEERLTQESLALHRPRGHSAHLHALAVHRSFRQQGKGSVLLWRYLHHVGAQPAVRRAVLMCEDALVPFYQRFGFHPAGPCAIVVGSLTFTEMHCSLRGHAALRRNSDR

Compound: N[C@@H](Cc1c[nH]c(F)n1)C(=O)O [2-fluorohistidine]
induction of AANAT in the pineal (AANAT): induction of AANAT in the pineal is blocked

effect on GST-AANAT activity (GST-AANAT): inhibited GST-AANAT activity
Compound: O=C(O)c1cc(SSc2ccc([N+](=O)[O-])c(C(=O)O)c2)ccc1[N+](=O)[O-] [DTNB, 5,5'-dithiobis-(2-nitrobenzoic acid]

Compound: COc1ccc2[nH]cc(CCNC(C)=O)c2c1 [Melatonin, 5-methoxy-N-acetyltryptamine]
oral bioavailability variability [1]: 25 fold range
Kd of binding and activation, higher compared to G-protein family receptors [2]: 10-100 fold
